We go through eight molecules from paper PMC8050233, “Biased cytochrome P450-mediated metabolism via small-molecule ligands binding P450 oxidoreductase” (Nature Communications, 2021).

In data set [1] the target is T1, human POR (Homo sapiens, UniProt A0A9L9PY49).
T1 construct: full-length wild type in pET22b, expressed in E. coli BL21(DE3); bacterial membranes reconstituted in DLPC/DLPG liposomes without further purification, or used as microsomes
T1 sequence (A0A9L9PY49 1-680): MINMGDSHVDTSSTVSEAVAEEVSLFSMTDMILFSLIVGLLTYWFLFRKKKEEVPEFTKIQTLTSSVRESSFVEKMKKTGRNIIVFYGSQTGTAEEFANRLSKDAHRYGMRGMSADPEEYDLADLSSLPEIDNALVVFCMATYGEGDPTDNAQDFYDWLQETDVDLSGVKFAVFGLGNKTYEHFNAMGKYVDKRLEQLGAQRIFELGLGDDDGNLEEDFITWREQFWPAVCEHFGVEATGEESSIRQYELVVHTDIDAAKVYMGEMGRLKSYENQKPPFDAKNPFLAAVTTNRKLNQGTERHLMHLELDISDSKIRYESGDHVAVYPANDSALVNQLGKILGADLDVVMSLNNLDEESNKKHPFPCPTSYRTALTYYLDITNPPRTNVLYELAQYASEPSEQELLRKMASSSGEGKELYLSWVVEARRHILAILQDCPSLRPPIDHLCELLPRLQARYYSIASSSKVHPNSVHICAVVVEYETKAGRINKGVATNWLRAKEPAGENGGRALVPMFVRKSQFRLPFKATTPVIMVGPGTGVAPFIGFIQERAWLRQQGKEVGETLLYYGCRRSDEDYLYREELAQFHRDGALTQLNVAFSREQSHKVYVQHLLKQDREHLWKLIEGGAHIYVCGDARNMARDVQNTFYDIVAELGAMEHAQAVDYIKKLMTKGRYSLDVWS
Description: biochemical. Set-up: POR proteoliposome reduction of cytochrome c, MTT (absorbance) or resazurin (fluorescence), normalized to DMSO control. As to conditions: Liposomes=Liposomes, electron acceptor as given. How it is done:
(§1) Using Cytc, MTT or RS as electron acceptors the change in absorbance (550 nm for Cytc and 610 nm for MTT) or emission (570 nm excitation, 585 nm emission for RS) was monitored as a function of time. Cytc and RS concentrations were both close to KM of the given electron acceptor, while MTT and NADPH were in excess amounts. Concentrations were 40 μM Cytc, 10 μM RS, 500 μM MTT and 100 μM NADPH unless otherwise stated. POR activity was extracted from the slope of the linear region of each trace. Michaelis–Menten kinetics and IC50 curves were performed under identical conditions using relevant substrate and ligand concentrations. All measurements were repeated at least three times and subsequently normalized to DMSO control measurements. […] Fluorescence intensities of resorufin in the presence of rifampicin were corrected according to a linear calibration curve (see Supplementary Fig. 7). Given that point-mutations in human POR can lead to altered specificity towards CYP isoforms[4],[19], we tested whether small-molecule ligands can bias the specificity of human POR to reduce diverse electron acceptors. […] (MTT)[32] (Fig. 2A). Each of the assays relies on spectral changes of the electron acceptor upon reduction by POR and thus directly reports on POR activity towards reducing the specific redox partner (see Supplementary Methods for details). Being comparative these assays exclude artefacts that may originate from potential FMN loss. […] POR plays an omnipotent role as an electron donor to microsomal CYPs in all eukaryotes and serves as a key metabolic hub in plants as well as humans. To test whether the effect of small-molecule ligand binding to POR is an omnipotent phenomenon underlying the regulation of POR in organisms from different kingdoms, we performed binding assays based on intrinsic fluorescence quenching and dose-response experiments on POR2b from the crop plant Sorghum bicolor (SbPOR2b) in proteoliposomes (Fig. 3A, B, Supplementary Fig. 6 and Supplementary Table 3).

A short description of the next data set: in vitro. As to conditions: human, nci-h295r cells. An excerpt: We tested the efficiency of the three ligands to elicit a physiological response on steroidogenic CYP activities in cells (Fig. 5A, see Supplementary Methods, Supplementary Fig. 14 and Supplementary Table 4 for all data and number of biological replicates). The 3 tested ligands are not known to interact directly with CYP17, CYP19 or CYP21, albeit rifampicin and [compound left out] are known to interact with liver CYPs like CYP2B6[27] and CYP3A4[28]. Using a human adrenocortical cell line (NCI-H295R) we tested the effect of ligands on CYP17A1 and CYP21A2[59],[60] activities at 10 and 100 μM concentrations (Fig. 5A). Using radiolabeled substrates, we were able to quantify the steroid hormone production of CYP17A1 and CYP21A2 and its remodeling by POR ligands (see Supplementary Methods for details). […]. Rifampicin caused no significant effect on CYP17A1 activity, but reduced CYP21A2 activity at 100 μM (73 ± 4% of control; see Fig. 5A and Supplementary Fig. 14). […]. […]. […] (91 ± 12% of control). Specific inhibition of CY Fig. 5 Biased metabolism: small-molecule ligands bias steroidogenic CYP-activities in human cells and microsomes. A A human adrenocortical cell line (NCI-H295R) was used to assess the effect of small-molecule ligands on steroidogenic CYP17A1 and CYP21A2 hydroxylase activity, and CYP17A1 lyase activity, using radiolabeled substrates (see Supplementary Methods and Supplementary Table 4). Cell viability was assessed based on MTT reduction. […]. The cells display increased MTT reduction indicating increased reductase activity. No significant effects on CYP17A1 activities are observed. [compound left out] causes a significance increase in CYP17A1 lyase and less significant towards 17-OHase and 21A2 activities, while MTT reduction decreases slightly. [compound left out] causes inhibition of both CYP17A1 and CYP21A2 activities. B Abiraterone was used as a control inhibitor of CYP17A1 and CYP21A2 in H295R cells. C The effect of ligands on CYP19A1 activity was assessed on microsomes from a human choriocarcinoma cell line (JEG3). […]. A, C Error bars represent mean ± SD of 3–4 biological replicates normalized to DMSO controls with propagated error. See Supplementary Fig. 14 for raw data and Supplementary Table 4 for exact value of n for each experimental condition. Note, overlapping data points appear shaded. Level of significance is determined by one-way ANOVA and Tukey’s HSD test correcting for multiple comparisons (*p < 0.05; **p < 0.01; ***p < 0.005; see Supplementary Methods for details). Source data are provided as a Source Data file.

The target in data set [2] is T2, SbPOR2b (Sorghum bicolor, UniProt C5YJG8).
T2 construct: gene CPR; full-length, expressed in E. coli NiCo21(DE3) from pET52b, purified on 2',5'-ADP Sepharose and Q-sepharose, in DLPC/DLPG proteoliposomes; mutant in lipid nanodiscs
Description: cytochrome c reduction, absorbance […] nm, Hill fit. The format is biochemical.

Data set [3] deals with T2, SbPOR2b. Description: resazurin reduction, fluorescence, Hill fit. The format is biochemical. An excerpt:
resazurin reduction, fluorescence, Hill fit on SbPOR2b | activity decrease in Cytc reduction and increase in RS reduction

The target of data set [4] is T2, SbPOR2b. The data set can be described thus: biochemical. As to conditions: Liposomes=Liposomes, electron acceptor as given. The arrangement: POR proteoliposome reduction of cytochrome c, MTT (absorbance) or resazurin (fluorescence), normalized to DMSO control. How it is done:
as §1

For data set [5], the target named is T2, SbPOR2b. Description: cytochrome c reduction, absorbance […] nm, Hill fit. The format is biochemical. The source holds these as a separate data set.
For data set [6], the target named is T1, human POR. The data set can be described thus: cytochrome c reduction, absorbance […] nm. The following applies: read-out: % of control at 100 μM. The format is biochemical.
Data set [7] addresses T2, SbPOR2b. Description: resazurin reduction, fluorescence, Hill fit. Format: biochemical. An excerpt: resazurin reduction, fluorescence, Hill fit on SbPOR2b | while marginally reducing the capacity in the RS assay
This is another data set of the same source.

[8] abbreviates: read-out: % of control remaining, Cytochrome C=Cytochrome C.
Setting [9] is: read-out: % of control remaining, Cytochrome C=MTT.
Where [10] appears, read: read-out: % of control remaining, Cytochrome C=Resazurin.
[11] abbreviates: Cytochrome C=MTT, read-out: % of control remaining.
[12] abbreviates: Cytochrome C=Resazurin, read-out: % of control remaining.
[13] abbreviates: Cytochrome C=Cytochrome C, read-out: % of control remaining.
Setting [14] is: Assay=MTT cell viability, DMSO (v/v %)=1, read-out: % viability.

Structures are written as SMILES. Read-outs that look alike come from different tables or passages of the source.

T2 sequence (C5YJG8 whole entry): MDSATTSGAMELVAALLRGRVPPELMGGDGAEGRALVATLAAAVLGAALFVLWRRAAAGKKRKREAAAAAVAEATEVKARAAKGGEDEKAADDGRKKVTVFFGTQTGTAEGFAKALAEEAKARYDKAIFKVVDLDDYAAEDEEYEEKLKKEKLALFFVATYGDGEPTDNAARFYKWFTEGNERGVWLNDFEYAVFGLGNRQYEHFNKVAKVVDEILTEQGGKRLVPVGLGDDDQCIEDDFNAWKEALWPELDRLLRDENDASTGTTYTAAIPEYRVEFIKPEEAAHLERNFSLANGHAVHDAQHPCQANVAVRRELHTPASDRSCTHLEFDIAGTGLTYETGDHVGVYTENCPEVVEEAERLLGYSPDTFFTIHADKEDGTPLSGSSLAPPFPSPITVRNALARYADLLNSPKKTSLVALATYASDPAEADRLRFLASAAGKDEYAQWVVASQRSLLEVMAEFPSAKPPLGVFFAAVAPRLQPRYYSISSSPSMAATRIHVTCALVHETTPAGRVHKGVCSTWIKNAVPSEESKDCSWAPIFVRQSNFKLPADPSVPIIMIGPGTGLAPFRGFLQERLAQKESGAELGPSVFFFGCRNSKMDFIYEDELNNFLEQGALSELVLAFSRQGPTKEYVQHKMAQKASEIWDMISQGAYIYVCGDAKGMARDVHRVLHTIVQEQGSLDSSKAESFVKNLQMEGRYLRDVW

In the case of `CCCCc1oc2ccccc2c1C(=O)c1cc(I)c(OCCN(CC)CC)c(I)c1` [Amiodarone], the remaining activity at 10 µM on human POR [1] (setting [8]) was determined as 95.6%; at human POR [1] (setting [9]), 85.1%; at human POR [1] (setting [10]), 102%. Besides, the values for the remaining activity at 100 µM at human POR [1] (setting [8]) and on human POR [1] (setting [10]) were 106% and 102%, respectively.
As to `CN/C(=N\CCSCc1nc[nH]c1C)NC#N` [Cimetidine], the remaining activity at 10 µM worked out at 110% at human POR [1] (setting [8]), 96.9% at human POR [1] (setting [9]) and 107% on human POR [1] (setting [10]). Besides, the remaining activity at 100 µM at human POR [1] (setting [8]) is 117%; at human POR [1] (setting [10]), 112%.
`CO[C@@]12[C@H](COC(N)=O)C3=C(C(=O)C(C)=C(N)C3=O)N1C[C@@H]1N[C@@H]12` [Mitomycin C]: the remaining activity at 10 µM on human POR [1] (setting [8]) worked out at 101%; at human POR [1] (setting [9]), 110%; on human POR [1] (setting [10]) it was 53.7%.
With `CC(C)c1nc(CN(C)C(=O)N[C@H](C(=O)N[C@@H](Cc2ccccc2)C[C@H](O)[C@H](Cc2ccccc2)NC(=O)OCc2cncs2)C(C)C)cs1` [Ritonavir], the values for the remaining activity at 10 µM on human POR [1] (setting [8]), at human POR [1] (setting [9]) and at human POR [1] (setting [10]) were 108%, 88.4% and 96.9%, respectively. The remaining activity at 100 µM came out at 118% at human POR [1] (setting [8]) and 95.9% on human POR [1] (setting [10]).
Turning to `CC(=O)CC(c1ccccc1)c1c(O)c2ccccc2oc1=O` (centres unmarked) [Warfarin], the remaining activity at 10 µM at human POR [1] (setting [8]) was 102%; on human POR [1] (setting [9]), 118%; on human POR [1] (setting [10]), 96.2%.
What is called viability is a read-out of living cells in per cent, often relative to untreated cells. In general, IC50 refers to the concentration at which inhibition is half-maximal. A low value points to higher potency. Usually EC50 stands for the concentration at which the effect is half-maximal. Regarding `O=P1(N(CCCl)CCCl)NCCCO1` (centres unmarked) [cyclophosphamide], in the data set “in vitro”, the viability at 10 µM amounted to 87.9% and the viability at 100 µM was 81.4%. The molecule further came in with a concentration for half-maximal inhibition (IC50) against SbPOR2b [2] of 228 ± 208 µM. A half-maximal response at SbPOR2b [3] (EC50) required 159 ± 136 µM.
As for `N#C[C@@H](O[C@@H]1O[C@H](CO)[C@@H](O)[C@H](O)[C@H]1O)c1ccc(O)cc1` [dhurrin], the viability at 10 µM in “in vitro” turned out to be 93.6%. For the same molecule, the viability at 100 µM in the data set “in vitro” worked out at 88.1%. For the same molecule, the remaining activity at 10 µM at human POR [1] (setting [11]) was found to be 87.7%; on human POR [1] (setting [12]), 105%; on SbPOR2b [4] (setting [13]), 128%. Further, the remaining activity at 100 µM amounted to 95.9% on human POR [1] (setting [11]); 81.7% on human POR [1] (setting [12]); 156% on SbPOR2b [4] (setting [13]); 236% at SbPOR2b [4] (setting [12]); 48 ± 9% on human POR [6]. The same molecule displayed an EC50 at SbPOR2b [5] of 21 ± 12 µM.
For `CO[C@H]1/C=C/O[C@@]2(C)Oc3c(C)c(O)c4c(O)c(c(/C=N/N5CCN(C)CC5)c(O)c4c3C2=O)NC(=O)/C(C)=C\C=C\[C@H](C)[C@H](O)[C@@H](C)[C@@H](O)[C@@H](C)[C@H](OC(C)=O)[C@@H]1C` [rifampicin], in “in vitro” (setting [14]), the viability at 10 µM was 94%. Besides, the viability at 100 µM in the data set “in vitro” (setting [14]) was found to be 116%. In addition, the remaining activity at 10 µM was 113% at human POR [1] (setting [8]); 95.7% at human POR [1] (setting [9]); 132% on human POR [1] (setting [10]); 140% on SbPOR2b [4] (setting [8]); 102% at SbPOR2b [4] (setting [10]). The remaining activity at 100 µM at human POR [1] (setting [9]) was 122%; at human POR [1] (setting [10]), 312%; on SbPOR2b [4] (setting [8]) it was 179%; on SbPOR2b [4] (setting [10]), 85%; at human POR [6], 14 ± 5%. The same molecule had an EC50 at SbPOR2b [5] of 9 ± 8 µM. The same molecule showed an IC50 at SbPOR2b [7] of 18 ± 9 µM.
